For one experiment, the system named is PC-3. The experiment is described as follows: Cytotoxicity against human PC3 cells assessed as reduction in cell viability by MTT assay.
The subject of another experiment is MCF7. The experiment is described as follows: Cytotoxicity against human MCF7 cells assessed as reduction in cell viability by MTT assay. A general note: Tetrazolium assays rely on reduction of a dye to a coloured formazan, in cell work by metabolically active cells.
The next experiment relates to SMMC-7721. The experiment is described as follows: Cytotoxicity against human SMMC7721 cells assessed as reduction in cell viability by MTT assay.

A word on the IC50: it is the midpoint of a concentration-inhibition curve.

A value given as a limit tells only on which side of the number the result lay.

With `CC12CCC3C1C(c1c(CCc4ccccc4)cc(O)cc1O2)C3(C)C` (centres undefined), the half-inhibitory concentration (IC50) with PC-3 turned out to be 19.6 µM; with MCF7 it was 14 µM; in the experiment on SMMC-7721, 14.5 µM.

Regarding `C=C(C)C1CCC2(C)Oc3cc(O)cc(CCc4ccccc4)c3C1C2O` (racemic), the results for the IC50 in the experiment on PC-3, in the experiment with MCF7 and in the experiment on SMMC-7721 were greater than 40 µM, 38.2 µM and greater than 40 µM, respectively.

Consider `CC12CCc3cc(CCc4ccccc4)cc(O)c3C1C2` (racemic), for which the figures for the IC50 in the experiment with PC-3, in the experiment with MCF7 and in the experiment on SMMC-7721 were greater than 40 µM, 24.7 µM and 34.2 µM, respectively.

For the origin of these results see ChEMBL document CHEMBL4130580, “Bibenzyl-Based Meroterpenoid Enantiomers from the Chinese Liverwort Radula sumatrana” (J Nat Prod, 2017).
